Source: patent US7115382B1, “Method for detecting IGFBP-4 protease without detecting IGFBP-4 protease/proMBP Complex” (Mayo Foundation for Medical Education and Research, priority 1999, dated 2006)

Test system: HEK 293 cells
Assay: Flow cytometry of PAPP-A binding to the cell surface
Format: cell-based, human
Settings: HEK 293 cells transfected with rPAPP-A cDNA, mAb 234-2 detection
Description: Flow cytometry was used to assess the binding of PAPP-A to the cell surface of HEK 293 cells either transfected with empty expression vector or with the vector containing cDNA encoding rPAPP-A (see Example 4 for a description of vectors and transfections). […] Fifty μl of the cell suspension was incubated with primary antibody (final concentration 5 μg/ml purified PAPP-A specific mAb 234-2) on ice for 30 min. Cells were then washed three times with L15/FBS and incubated with fluorescein isothiocyanate-conjugated goat anti-mouse IgG (heavy and light chain, Zymed Laboratories, San Francisco, Calif.) for 30 min on ice. Cells were fixed in buffer with 1% formaldehyde before flow cytometry on a Becton Dickinson instrument. […] Similar results were obtained with other PAPP-A monoclonal antibodies (234-3, 234-4, 234-5, and 234-7).

PAPP-A: pregnancy-associated plasma protein-A, the IGF-dependent IGFBP-4 protease
Binding to the cell surface: binds to the surface of HEK 293 cells
